Holding throughout (type): cell-based, human
One data set deals with pKAP1 (KAP1 S824). The data set can be described thus: pKAP1 levels. The following applies: 50 µg/ml phleomycin for 12 h; vs control cells. On the procedure:
(§1) 0.8 ControlERCC6L2ControlERCC6L2
(§2) 0.4 28 kDa short exposure […]
(§3) Figure S12. DNA damage-induced changes in control and ERCC6L2 -/- cells. Related to Figure 6.
(§4) (A) Box and whisker plots measuring average pRPA intensi?es in control and ERCC6L2-/- cells. Cells were either untreated, or exposed to 50 µg /ml phleomycin for 12 h, before ﬁxa?on and staining. N(images)>180, N(cells)>28,000. (B) Representa?ve images of phleomycin treated cells used for quan?ﬁca?ons in A. Shown are expressions of indicated proteins, with zoomed images of cells in coloured frames.
(§5) (C) Analysis of pRPA levels by western blot. Treatments were as in A. (D) Box and whisker plots measuring average pKAP1 intensi?es in control and ERCC6L2-/- cells. Cells were either untreated, or exposed to 50 µg /ml phleomycin for 12 h, before ﬁxa?on and staining.
N(images)>180, N(cells)>28,000. (E) Representa?ve images of phleomycin treated cells used for quan?ﬁca?ons in D. Shown are expressions of indicated proteins, with zoomed images of cells in coloured frames. (F) Analysis of pKAP1 levels by western blot. Treatments were as in D. (G) Box and whisker plots measuring KAP1 foci in control and ERCC6L2-/- cells. Cells were either untreated, or exposed to 50 µg /ml phleomycin for 12 h, before ﬁxa?on and staining. N(images)>180, N(cells)>28,000. B, E, H: Scale bar: 10 µm. A, D, G: Sta?s?cs […]

The subject of the next data set is pRPA32. The data set can be described thus: pRPA levels (ssDNA marker). The following applies: 50 µg/ml phleomycin for 12 h; vs control cells. On the procedure:
For quantitative analysis of pRPA, RAD51, γH2AX, and EdU foci, non-overlapping images were acquired using a 20x objective lens. Image analysis was performed using CellProfiler.[98] For quantification of TRF1-and CENP-C-positive micronuclei, random non-overlapping images were acquired, and Z-stacks were further collected for each micronucleus to examine the presence of TRF1 and CENP-C foci. […]
as §1, §2, §3, §4, §5
N(images)>180, N(cells)>28,000. […]

Data set [1] concerns control and ERCC6L2^−/− U2OS cells. Nature of the data set: Micronuclei formation. The following applies: cells grown with damaging agents for 2 days; ERCC6L2^−/− vs control U2OS.
Text: absence or presence of damaging agents for 2 days. CENPC and 53BP1 were used as centromeric and DSB markers, respec?vely. N(images) >140, N(cells)>50,000. (B) Quan?ﬁca?on of micronuclei subtypes in control and ERCC6L2-/- U2OS cells, as indicated. 53BP1 or γH2AX were used as DSB markers; CENP-C was used as a centromere marker; Telomeric repeat-binding factor 2-interac?ng protein 1 (RAP1) was used as a telomere marker. N(images)>400, N(cells)>30,000.
Data set [2] has the same test system. The data set can be described thus: Clonogenic survival assay. The following applies: 11 days, 3 independent experiments, ERCC6L2^−/− vs control U2OS.
Experimental: Cells were seeded in 6-well plates (approximately 700 cells/well) and either left untreated or treated with the indicated concentrations of genotoxic agents. Cells were then grown for 11 days to allow colony formation. Colonies were stained with 5 mg/ml crystal violet (Sigma-Aldrich) solution in 25% methanol for 30 min. Pictures were taken using a Nikon D3200 camera and images were analyzed using FIJI software. FIJI’s ‘Analyze Particles’ function was used to quantify numbers of colonies. Survival was calculated relative to untreated cells. Each experiment was performed in technical triplicates, and data shown represent combined data from at least three independent experiments.
Another data set relates to CENP-B. Nature of the data set: CENP-B intensities by QIBC after genotoxic stress. The following applies: 1 h, 5 h recovery, N(cells)>30,000.
For data set [3], the system named is control and ERCC6L2^−/− cells. Nature of the data set: Nascent DNA degradation assay (DNA combing). The following applies: 3 mM hydroxyurea, 4 h; IdU/CldU track ratio; N(tracks)>700. The procedure:
Control and ERCC6L2^−/− cells were labeled with 100 μM CldU, followed by 100 μM IdU in the presence of 10 μM Polα inhibitor CD437. Each pulse lasted 40 min. Cells were then trypsinised and embedded in agarose plugs using a kit from Genomic Vision according to the manufacturer’s instructions. DNA was extracted and purified from the agarose plugs, and stretched onto silanised coverslips with the molecular combing system (Genomic Vision). CldU was detected with rat anti-BrdU antibody (Abcam, BU1/75) and Alexa Fluor 594 conjugated secondary antibody (Thermo Fisher Scientific). ldU was detected with mouse anti-BrdU antibody (Becton Dickinson, BD44) and Alexa Fluor 488 conjugated secondary antibody (Thermo Fisher Scientific). […] More than 1500 tracks were analyzed per condition.
For nascent DNA degradation assay, cells were sequentially incubated with 100 μM CldU and 100 μM IdU. […] More than 700 tracks were analyzed per condition. […]
Error bars represent standard errors from 3 independent experiments. […] U2OS cells were transfected with YFP-ERCC6L2 constructs and monitored by live cell imaging following laser induced DNA damage. […]
(F) Valida?on of siRNA against CTC1 and C20orf196. […] For BRCA1, RIF1, REV7, 53BP1, BLM and CtIP, cells were transfected as in F, and endogenous proteins were detected by speciﬁc an?bodies. […] Expression was detected by an?-FLAG or an?-GFP an?bodies, as indicated. […]

As for phleomycin, in the data set with pKAP1 (KAP1 S824), the “pKAP1 levels in treated ERCC6L2^−/− cells” value was “decreased levels of pKAP1”. The “pRPA levels in treated ERCC6L2^−/− cells” value in the data set with pRPA32 is on record as “increased levels of pRPA”. Further, the “micronuclei formation in ERCC6L2-deficient cells” value in data set [1] was “increased frequency of micronuclei formation”. Further, in data set [2], the “sensitivity of ERCC6L2-deficient cells” value was “increased sensitivity”. For the same compound, the “CENP-B intensities after 25 µg/ml phleomycin” value with CENP-B is listed as “not aﬀected by DNA damage”.
`NC(=O)NO` [hydroxyurea]: the “nascent DNA protection, control vs ERCC6L2^−/−” value in data set [3] is given as “did not observe significant differences in nascent DNA protection”.
